In patent US8133849B2, “Herbicidal compounds” (Syngenta Limited, priority 2007, dated 2012):

What was measured:
Test in all cases: Example B2 herbicidal action, post-emergence, pots in glasshouse, damage score 0-10
Type in all cases: in vivo
Conditions in all cases: application post-emergence, rate 1000 g/ha, evaluated after 13 days
Ipomea hederaceae = tested on: Ipomea hederaceae
How it was run: (§1)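 Damage was assessed 13 days after a post-emergence spray given to 8-day-old pot seedlings. The spray was an aqueous solution from an acetone/water (50:50) formulation with 0.5% Tween 20. Plants grew in a glasshouse at 24/16° C, 14 h light, 65% humidity, watered twice daily.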

Echinochloa crus-galli = tested on: Echinochloa crus-galli
How it was run: as §1

Amaranthus retroflexus = tested on: Amaranthus retroflexus
How it was run: as §1

Setaria faberi = tested on: Setaria faberi
How it was run: as §1

Solanum nigrum = tested on: Solanum nigrum
How it was run: as §1

SMILES | IPOHE damage score (10=total damage to plant; 0=no damage to plant) (Ipomea hederaceae) | ECHCG damage score (10=total damage to plant; 0=no damage to plant) (Echinochloa crus-galli) | AMARE damage score (10=total damage to plant; 0=no damage to plant) (Amaranthus retroflexus) | SETFA damage score (10=total damage to plant; 0=no damage to plant) (Setaria faberi) | SOLNI damage score (10=total damage to plant; 0=no damage to plant) (Solanum nigrum)
O=S1(=O)C(c2ccc(Cl)cc2Cl)=C(O)c2nccnc2N1CC(F)(F)F [Compound D51] | 7 | 2 | 7 | 1 | 8
C#CCN1c2nccnc2C(OC(=O)C(C)C)=C(c2ccccc2[N+](=O)[O-])S1(=O)=O [Compound C68] | 1 | 0 | 0 | 0 | 2
CC(C)(C)C(=O)OC1=C(c2ccccc2I)S(=O)(=O)N(CC(F)F)c2nccnc21 [Compound C81] | 10 | 8 | 10 | 7 | 10
CCN1c2nccnc2C(OC(=O)C(C)C)=C(c2ccccc2SC(F)(F)F)S1(=O)=O [Compound C19, isobutyric acid 1-ethyl-2,2-dioxo-3-(2-trifluoromethyl-sulfanyl-phenyl)-1,2-dihydro-2-λ-6-thia-1,5,8-triaza-naphthalen-4-yl ester] | 8 | 4 | 9 | 0 | 6
CC(C)C(=O)OC1=C(c2cc(C(F)(F)F)ccc2Cl)S(=O)(=O)N(C=CCl)c2nccnc21 (mixture of isomers) [Compound C114] | 6 | 0 | 4 | 2 | 10
O=S1(=O)C(c2c(Cl)cccc2C(F)(F)F)=C(O)c2nccnc2N1CC(F)F [Compound D11] | 9 | 8 | 10 | 8 | 10
CC(C)(C)C(=O)OC1=C(c2cc(I)ccc2Cl)S(=O)(=O)N(CC(F)F)c2nccnc21 [Compound C55] | 8 | 2 | 7 | 2 | 7
CC(C)(C)C(=O)OC1=C(c2cc(-c3cccc(Cl)c3)ccc2Cl)S(=O)(=O)N(CC(F)F)c2nccnc21 [Compound C56] | 0 | 0 | 10 | 0 | 2
CCN1c2nccnc2C(O)=C(c2ccccc2SC(F)(F)F)S1(=O)=O [Compound D7] | 3 | 0 | 9 | 0 | 5
CC(C)C(=O)OC1=C(c2ccccc2C(F)(F)F)S(=O)(=O)N(CC(F)F)c2nccnc21 [Compound C61] | 10 | 9 | 10 | 10 | 10
COCN1c2nccnc2C(OC(=O)C(C)(C)C)=C(c2ccccc2SC(F)(F)F)S1(=O)=O [Compound C23] | 4 | 4 | 5 | 3 | 6
O=S1(=O)C(c2c(F)ccc(-c3cccc(Cl)c3)c2Cl)=C(O)c2nccnc2N1CC(F)F [Compound D20] | 6 | 1 | 3 | 1 | 5
O=S1(=O)C(c2cc(C(F)(F)F)ccc2Cl)=C(O)c2nccnc2N1CC(F)F [Compound D16, 3-(2-chloro-5-trifluoromethyl-phenyl)-1-(2,2-difluoro-ethyl)-2,2-dioxo-1,2-dihydro-2-λ-6-thia-1,5,8-triaza-naphthalen-4-ol] | 9 | 5 | 10 | 2 | 10
CCN1c2nccnc2C(OC(=O)C(C)(C)C)=C(c2cc(Cl)ccc2C(F)(F)F)S1(=O)=O [Compound C108] | 3 | 3 | 4 | 2 | 7
CC(C)C(=O)OC1=C(c2ccc(Cl)cc2Cl)S(=O)(=O)N(CC(Cl)Cl)c2nccnc21 [Compound C116] | 6 | 2 | 10 | 3 | 10
C#CCN1c2nccnc2C(O)=C(c2c(Cl)ccc(Cl)c2C(F)(F)F)S1(=O)=O [Compound D45] | 8 | 6 | 8 | 6 | 9
CCN1c2nccnc2C(O)=C(c2ccc(Cl)c(Cl)c2)S1(=O)=O [Compound D8] | 0 | 0 | 9 | 0 | 2
CS(=O)(=O)OC1=C(c2cc(C(F)(F)F)ccc2Cl)S(=O)(=O)N(CC(F)F)c2nccnc21 [Compound C83, methanesulfonic acid 3-(2-chloro-5-trifluoromethyl-phenyl)-1-(2,2-difluoro-ethyl)-2,2-dioxo-1,2-dihydro-2-λ-6-thia-1,5,8-triaza-naphthalen-4-yl ester] | 10 | 7 | 9 | 1 | 10
